Here are results for 22 compounds from US12435092B2, “Substituted imidazo[1,2-A]quinazolines as inhibitors of PARG” (858 Therapeutics, Inc., priority 2022, dated 2025).

For orientation: IC50 means the concentration that inhibits the measured activity by half. A low value points to greater potency in that assay.

The target of this experiment is T1, cellular PARG (Homo sapiens, UniProt Q86W56).
T1 construct: endogenous in cells; host or cells: HeLa
As to the kind of experiment: Nuclear PAR accumulation assay (immunofluorescence high-content imaging). It counts as cell-based. The settings on record: HeLa cells, 1 hour compound treatment then MMS 50 μg/mL for an additional hour. On the procedure:
Compound IC50 values for inhibition of cellular PARG were determined using an immunofluorescence high-content imaging assay for nuclear PAR accumulation. HeLa cells were plated at 15,000 cells/well in a 96-well plate the day before compound treatment and then treated with varying concentrations of test compound and incubated for 1 hour at 37° C.+5% CO2. Following test compound treatment, methylmethane sulfonate (MMS) was added to a final concentration of 50 μg/mL and the cells were incubated for an additional hour. Following treatment, the cells were fixed with ice cold 95% methanol and the plates sealed and placed at −20° C. for 15 minutes. The cells were then washed once with phosphate buffered saline (PBS) and permeabilized with 0.1% Triton-X 100 for 20 minutes at room temperature. The cells were again washed once with PBS and incubated with an anti-poly-ADP ribose (PAR) monoclonal antibody (Millipore Part #AM80 clone 10H) diluted 1:1,000 in 5% fetal bovine serum +0.1% Tween-20+PBS overnight at 4° C. The cells were then washed three times with PBS before incubation with a fluorescently conjugated goat anti-mouse antibody (Invitrogen A32723) diluted 1:500 in 5% FBS+0.1% Tween-20+PBS for 1 hour at room temperature. The cells were again washed three times with PBS and the nuclei labeled by incubating with 1 μg/mL DAPI (4′,6-diamidino-2-phenylindole). Nuclear PAR accumulation was evaluated using high-content fluorescence microscopy. Four fields for each well were acquired at 20× magnification resulting in at least 1,000 cells analyzed per well. Using high-content software (CellReporterXpress) the nuclei were detected and segmented using the DAPI channel and the fluorescence intensity of the PAR-Alexa 488 channel was quantified within the nuclei regions. Both the average intensity per nucleus and percent PAR positive cells were quantified. Percent PAR positive cells were identified by having greater anti-PAR labeling above the threshold set with vehicle DMSO treated control cells. Percent inhibition of PARG by test compounds was calculated by normalizing the data to the 0.1% DMSO and reference compound control values, which represent 0% and 100% inhibition of enzymatic activity, respectively. Concentration-response-curves and IC50 values were generated using four parameter logistic curve fit software.

T1 sequence (Q86W56 whole entry): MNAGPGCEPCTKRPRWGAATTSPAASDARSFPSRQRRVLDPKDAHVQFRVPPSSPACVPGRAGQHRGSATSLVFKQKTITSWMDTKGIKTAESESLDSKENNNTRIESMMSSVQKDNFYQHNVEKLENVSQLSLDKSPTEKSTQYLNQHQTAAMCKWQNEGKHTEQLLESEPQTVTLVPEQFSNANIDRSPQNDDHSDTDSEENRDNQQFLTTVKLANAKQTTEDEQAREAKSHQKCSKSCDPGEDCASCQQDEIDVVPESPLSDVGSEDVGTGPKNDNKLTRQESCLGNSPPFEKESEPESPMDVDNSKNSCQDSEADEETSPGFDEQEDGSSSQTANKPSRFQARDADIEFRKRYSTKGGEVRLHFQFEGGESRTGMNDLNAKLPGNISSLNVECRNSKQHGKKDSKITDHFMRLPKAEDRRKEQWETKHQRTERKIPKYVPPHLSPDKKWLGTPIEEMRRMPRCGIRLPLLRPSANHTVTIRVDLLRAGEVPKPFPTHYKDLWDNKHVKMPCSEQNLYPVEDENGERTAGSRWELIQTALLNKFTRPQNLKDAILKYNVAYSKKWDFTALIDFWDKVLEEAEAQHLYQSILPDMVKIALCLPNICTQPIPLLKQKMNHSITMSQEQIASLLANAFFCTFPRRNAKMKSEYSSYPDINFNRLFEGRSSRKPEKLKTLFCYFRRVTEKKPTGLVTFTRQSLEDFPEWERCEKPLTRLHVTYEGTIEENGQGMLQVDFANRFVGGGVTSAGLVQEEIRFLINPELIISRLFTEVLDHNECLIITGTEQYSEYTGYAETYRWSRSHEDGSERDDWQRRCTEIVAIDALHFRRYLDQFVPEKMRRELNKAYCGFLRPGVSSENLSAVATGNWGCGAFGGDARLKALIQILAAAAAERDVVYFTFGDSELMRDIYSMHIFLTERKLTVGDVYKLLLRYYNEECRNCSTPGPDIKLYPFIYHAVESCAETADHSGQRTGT

In turn, `CCN1C(=O)c2cc(S(=O)(=O)NC3(C)CC3)ccc2N2C1=NC[C@@H]2C(C)C` [Example 37, (S)-4-ethyl-1-isopropyl-N-(1-methylcyclopropyl)-5-oxo-1,2,4,5-tetrahydroimidazo[1,2-a]quinazoline-7-sulfonamide] had an IC50 of over 10 µM.

`CCN1C(=O)c2cc(S(=O)(=O)NC3(C)CC3)ccc2N2C1=NC[C@H]2C(C)C` [Example 38, (R)-4-ethyl-1-isopropyl-N-(1-methylcyclopropyl)-5-oxo-1,2,4,5-tetrahydroimidazo[1,2-a]quinazoline-7-sulfonamide] gave an IC50 of 0.1 to 1 µM. In the case of `CC(C)[C@H]1CN=C2N(Cc3cnn(C)c3)C(=O)c3cc(S(=O)(=O)NC4(C)CC4)ccc3N21` [Example 39, (S)-1-isopropyl-4-((1-methyl-1H-pyrazol-4-yl)methyl)-N-(1-methylcyclopropyl)-5-oxo-1,2,4,5-tetrahydroimidazo[1,2-a]quinazoline-7-sulfonamide] it was 1 to 10 µM; in that of `CC(C)[C@@H]1CN=C2N(Cc3cnn(C)c3)C(=O)c3cc(S(=O)(=O)NC4(C)CC4)ccc3N21` [Example 40, (R)-1-isopropyl-4-((1-methyl-1H-pyrazol-4-yl)methyl)-N-(1-methylcyclopropyl)-5-oxo-1,2,4,5-tetrahydroimidazo[1,2-a]quinazoline-7-sulfonamide], at most 0.1 µM; in that of `CC[C@H]1CN=C2N(CC)C(=O)c3cc(S(=O)(=O)NC4(C)CC4)ccc3N21` [Example 41, (S)-1,4-diethyl-N-(1-methylcyclopropyl)-5-oxo-1,2,4,5-tetrahydroimidazo[1,2-a]quinazoline-7-sulfonamide], over 10 µM.

Regarding `CC[C@@H]1CN=C2N(CC)C(=O)c3cc(S(=O)(=O)NC4(C)CC4)ccc3N21` [Example 42, (R)-1,4-diethyl-N-(1-methylcyclopropyl)-5-oxo-1,2,4,5-tetrahydroimidazo[1,2-a]quinazoline-7-sulfonamide], the IC50 lay in the range of 0.1 to 1 µM. The result for `C#CC1CN=C2N(C)C(=O)c3cc(S(=O)(=O)NC4(C)CC4)ccc3N21` (stereo not shown) [Example 43, 1-ethynyl-4-methyl-N-(1-methylcyclopropyl)-5-oxo-1,2,4,5-tetrahydroimidazo[1,2-a]quinazoline-7-sulfonamide] reads 0.1 to 1 µM; that for `CC[C@H]1CN=C2N(Cc3cnn(C)c3)C(=O)c3cc(S(=O)(=O)NC4(C)CC4)ccc3N21` [Example 44, (S)-1-ethyl-4-((1-methyl-1H-pyrazol-4-yl)methyl)-N-(1-methylcyclopropyl)-5-oxo-1,2,4,5-tetrahydroimidazo[1,2-a]quinazoline-7-sulfonamide], 0.1 to 1 µM. Compound `CC[C@@H]1CN=C2N(Cc3cnn(C)c3)C(=O)c3cc(S(=O)(=O)NC4(C)CC4)ccc3N21` [Example 45, (R)-1-ethyl-4-((1-methyl-1H-pyrazol-4-yl)methyl)-N-(1-methylcyclopropyl)-5-oxo-1,2,4,5-tetrahydroimidazo[1,2-a]quinazoline-7-sulfonamide] gave a half-inhibitory concentration (IC50) of at most 0.1 µM.

`C[C@@H]1CN=C2N(Cc3cnn(C)c3)C(=O)c3cc(S(=O)(=O)NC4(C)CC4)ccc3N21` [Example 46, (R)-1-methyl-4-((1-methyl-1H-pyrazol-4-yl)methyl)-N-(1-methylcyclopropyl)-5-oxo-1,2,4,5-tetrahydroimidazo[1,2-a]quinazoline-7-sulfonamide]: the IC50 was at most 0.1 µM. `CCN1C(=O)c2cc(S(=O)(=O)NC3(C)CC3)ccc2N2C1=NC[C@H]2C` [Example 47, (R)-4-ethyl-1-methyl-N-(1-methylcyclopropyl)-5-oxo-1,2,4,5-tetrahydroimidazo[1,2-a]quinazoline-7-sulfonamide] returned a 50% inhibitory concentration (IC50) of 0.1 to 1 µM. In the case of `CN1C(=O)c2cc(S(=O)(=O)NC3(C)CC3)ccc2N2C1=NCC2C1CC1` (stereo not shown) [Example 48, 1-cyclopropyl-4-methyl-N-(1-methylcyclopropyl)-5-oxo-1,2,4,5-tetrahydroimidazo[1,2-a]quinazoline-7-sulfonamide] it was 0.1 to 1 µM; in that of `CC(C)C1CN=C2N(C)C(=O)c3cc(S(=O)(=O)NC4(C)CC4)ccc3N21` (stereo not shown) [Example 49, 1-isopropyl-4-methyl-N-(1-methylcyclopropyl)-5-oxo-1,2,4,5-tetrahydroimidazo[1,2-a]quinazoline-7-sulfonamide], 1 to 10 µM; in that of `CCC1CN=C2N(C)C(=O)c3cc(S(=O)(=O)NC4(C)CC4)ccc3N21` (stereo not shown) [Example 50, 1-ethyl-4-methyl-N-(1-methylcyclopropyl)-5-oxo-1,2,4,5-tetrahydroimidazo[1,2-a]quinazoline-7-sulfonamide], 0.1 to 1 µM.

`C[C@@H]1CN=C2N(Cc3ccccc3)C(=O)c3cc(S(=O)(=O)NC4(C)CC4)ccc3N21` [Example 51, (R)-4-benzyl-1-methyl-N-(1-methylcyclopropyl)-5-oxo-1,2,4,5-tetrahydroimidazo[1,2-a]quinazoline-7-sulfonamide] gave an IC50 of 1 to 10 µM. Consider `C[C@@H]1CN=C2N(C)C(=O)c3cc(S(=O)(=O)NC4(C)CC4)ccc3N21` [Example 52, (R)-1,4-dimethyl-N-(1-methylcyclopropyl)-5-oxo-1,2,4,5-tetrahydroimidazo[1,2-a]quinazoline-7-sulfonamide], for which the IC50 was in the range of 0.1 to 1 µM. Compound `C[C@@H]1CN=C2N(Cc3cnn(CCN(C)C)c3)C(=O)c3cc(S(=O)(=O)NC4(C)CC4)ccc3N21` [Example 53, (R)-4-((1-(2-(dimethylamino)ethyl)-1H-pyrazol-4-yl)methyl)-1-methyl-N-(1-methylcyclopropyl)-5-oxo-1,2,4,5-tetrahydroimidazo[1,2-a]quinazoline-7-sulfonamide] returned a half-maximal inhibitory concentration (IC50) of 0.1 to 1 µM. The result for `C[C@@H]1CN=C2N(CC3COC3)C(=O)c3cc(S(=O)(=O)NC4(C)CC4)ccc3N21` [Example 54, (R)-1-methyl-N-(1-methylcyclopropyl)-4-(oxetan-3-ylmethyl)-5-oxo-1,2,4,5-tetrahydroimidazo[1,2-a]quinazoline-7-sulfonamide] reads over 10 µM.

`C[C@@H]1CN=C2N(Cc3cn(C)nc3C(F)(F)F)C(=O)c3cc(S(=O)(=O)NC4(C)CC4)ccc3N21` [Example 55, (R)-1-methyl-4-((1-methyl-3-(trifluoromethyl)-1H-pyrazol-4-yl)methyl)-N-(1-methylcyclopropyl)-5-oxo-1,2,4,5-tetrahydroimidazo[1,2-a]quinazoline-7-sulfonamide] showed an IC50 of at most 0.1 µM. On to `Cc1nnc(CN2C(=O)c3cc(S(=O)(=O)NC4(C)CC4)ccc3N3C2=NC[C@H]3C)s1` [Example 56, (R)-1-methyl-4-((5-methyl-1,3,4-thiadiazol-2-yl)methyl)-N-(1-methylcyclopropyl)-5-oxo-1,2,4,5-tetrahydroimidazo[1,2-a]quinazoline-7-sulfonamide], for which the IC50 was at most 0.1 µM. Compound `C[C@@H]1CN=C2N(Cc3cnn(C(F)F)c3)C(=O)c3cc(S(=O)(=O)NC4(C)CC4)ccc3N21` [Example 57, (R)-4-((1-(difluoromethyl)-1H-pyrazol-4-yl)methyl)-1-methyl-N-(1-methylcydopropyl)-5-oxo-1,2,4,5-tetrahydroimidazo[1,2-a]quinazoline-7-sulfonamide] registered an IC50 of at most 0.1 µM. In the case of `C#CCN1C(=O)c2cc(S(=O)(=O)NC3(C)CC3)ccc2N2C1=NC[C@H]2C` [Example 58, (R)-1-methyl-N-(1-methylcyclopropyl)-5-oxo-4-(prop-2-yn-1-yl)-1,2,4,5-tetrahydroimidazo[1,2-a]quinazoline-7-sulfonamide], the IC50 is at most 0.1 µM.
